How the values were obtained:
[1] = target: T1, Capsid scaffolding protein (Herpes simplex virus (type 1 / strain 17), UniProt P10210); test: Inhibitory activity against herpes simplex type 1 protease (HSV-1 pr).
T1 sequence (P10210 whole entry): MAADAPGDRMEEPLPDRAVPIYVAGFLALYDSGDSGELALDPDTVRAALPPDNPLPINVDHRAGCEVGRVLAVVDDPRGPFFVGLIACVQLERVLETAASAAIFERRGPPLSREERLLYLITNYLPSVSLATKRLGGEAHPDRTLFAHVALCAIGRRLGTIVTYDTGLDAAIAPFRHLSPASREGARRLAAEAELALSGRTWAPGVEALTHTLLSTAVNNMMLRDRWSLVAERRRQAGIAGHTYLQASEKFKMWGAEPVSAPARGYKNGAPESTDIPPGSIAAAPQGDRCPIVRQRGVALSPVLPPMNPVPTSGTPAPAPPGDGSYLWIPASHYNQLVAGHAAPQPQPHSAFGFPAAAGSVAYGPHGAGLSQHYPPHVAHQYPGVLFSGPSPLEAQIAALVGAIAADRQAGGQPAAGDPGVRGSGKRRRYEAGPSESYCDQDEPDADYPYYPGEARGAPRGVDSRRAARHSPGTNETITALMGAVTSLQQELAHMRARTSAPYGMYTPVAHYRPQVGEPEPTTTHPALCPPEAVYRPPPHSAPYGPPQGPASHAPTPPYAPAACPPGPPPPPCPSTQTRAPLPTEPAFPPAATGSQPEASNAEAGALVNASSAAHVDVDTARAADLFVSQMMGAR

[2] = Half-life in aqueous solution.; format: ADME

| Structure (SMILES) | IC50 [1] | half-life [2] |
| --- | --- | --- |
| C[C@H](NC(=O)OCc1ccccc1)c1nc2cccc(Cl)c2c(=O)o1 | > 300 µM |  |
| CCCCNc1nc2ccccc2c(=O)o1 | 300 µM |  |
| CC(C)COC(=O)Nc1ccc2c(=O)oc(NC(C)C)nc2c1 | 50 µM |  |
| C=CCOc1nc2ccccc2c(=O)o1 | 15 µM |  |
| C[C@H](NC(=O)OCc1ccccc1)c1nc2cccc(F)c2c(=O)o1 | 50 µM |  |
| C[C@@H](NC(=O)OCc1ccccc1)c1nc2cccc(F)c2c(=O)o1 | 200 µM |  |
| CC(C)Nc1nc2cc(N)ccc2c(=O)o1 | 55 µM |  |
| O=c1oc(Nc2cccc(F)c2)nc2ccccc12 | > 300 µM |  |
| O=c1oc(Oc2ccccc2)nc2ccccc12 | 10 µM |  |
| CCc1cccc2nc([C@H](C)NC(=O)OCc3ccccc3)oc(=O)c12 | > 300 µM |  |
| CCOc1nc2cccc(C)c2c(=O)o1 | 15 µM |  |
| C[C@H](NC(=O)OCc1ccccc1)c1nc2cc(N)ccc2c(=O)o1 | 150 µM |  |
| CCOc1nc2cccc(Cl)c2c(=O)o1 | 7 µM |  |
| CCOc1nc2cccc(CC)c2c(=O)o1 | 20 µM |  |
| COC(=O)C(C)Nc1nc2ccccc2c(=O)o1 (stereo not drawn) | 25 µM |  |
| CC(C)Nc1nc2ccccc2c(=O)o1 | 25 µM |  |
| COc1ccc(Oc2nc3ccccc3c(=O)o2)cc1 | 2.5 µM |  |
| CC(Nc1nc2ccccc2c(=O)o1)c1ccccc1 (stereo not drawn) | 60 µM |  |
| CC(C)Nc1nc2cc(NC(=O)C(C)NC(=O)OCc3ccccc3)ccc2c(=O)o1 (stereo not drawn) | 5 µM | 171 h |
| C[C@H](NC(=O)OCc1ccccc1)c1nc2ccccc2c(=O)o1 | 50 µM |  |
| CCOc1nc2cccc(F)c2c(=O)o1 | 75 µM |  |
| CC(C)Nc1nc2cc(NC(=O)C(CC(N)=O)NC(=O)OCc3ccccc3)ccc2c(=O)o1 (stereo not drawn) | 15 µM |  |
| CCOc1nc2c(Cl)ccc(Cl)c2c(=O)o1 | 1.5 µM | 1 h |
| Cc1cccc2nc([C@H](C)NC(=O)OCc3ccccc3)oc(=O)c12 | 120 µM |  |
| CCOc1nc2ccccc2c(=O)o1 | 25 µM |  |
| CC(NC(=O)OCc1ccccc1)C(=O)Nc1ccc2c(=O)oc([C@H](C)NC(=O)OCc3ccccc3)nc2c1 (stereo partly drawn) | 12 µM |  |

Source: ChEMBL document CHEMBL1151516, “Inhibition of HSV-1 protease by benzoxazinones” (Bioorg Med Chem Lett, 1996)
